Source: article PMC10099595, “Multimodal 4-arylchromene derivatives with microtubule-destabilizing, anti-angiogenic, and MYB-inhibitory activities” (Cancer Drug Resistance, 2023)

Assays:
[1] = tested on: HDFa adult human dermal fibroblasts; set-up: method as in Köhler et al.[20]; details: non-malignant cells; ref Köhler et al.[20]; cited from earlier work
[2] = tested on: HCT-116 colon carcinoma cells; details: positive control; ref Köhler et al.[20]; cited from earlier work
[3] = tested on: EA.hy926 endothelial hybrid cells; details: positive control; ref Köhler et al.[20]; cited from earlier work
[4] = tested on: HCT-116 p53-/- colon carcinoma cells; details: positive control; ref Köhler et al.[20]; cited from earlier work
518A2 melanoma cells = details: positive control; ref Köhler et al.[20]; cited from earlier work
[5] = tested on: KB-V1^Vbl cervix carcinoma cells; details: without verapamil; ref Köhler et al.[20]; cited from earlier work
[6] = tested on: HeLa cervix carcinoma cells; set-up: method as in Köhler et al.[20]; details: positive control; ref Köhler et al.[20]; cited from earlier work
[7] = tested on: HT-29 colon carcinoma cells; details: positive control; ref Köhler et al.[20]; cited from earlier work
[8] = tested on: tested cancer and hybrid cell lines; assay: MTT assay, average over all tested cancer and hybrid cell lines
U-87 glioblastoma cells = details: positive control; ref Köhler et al.[20]; read-out: IC50 U87; cited from earlier work
[9] = tested on: MCF-7 breast carcinoma cells; details: positive control; ref Köhler et al.[20]; cited from earlier work

IC50 ([8]; Homo sapiens, read-out: Average IC50 value of the tested cancer and hybrid cell lines (Ø IC50), average of all cell lines of Table 2): 52 nM
Structure (SMILES): N#CC1=C(N)Oc2c(ccc3ccccc23)C1c1cccc([N+](=O)[O-])c1 (stereo not drawn) [1A, 2-amino-4-(3-nitrophenyl)-4H-naphtho(1,2-b)pyran-3-carbonitrile]
IC50 [1]: 40700 nM
IC50 [2]: 8 ± 0.7 nM
IC50 [3]: 30 ± 1 nM
IC50 [4]: 30 ± 3 nM
IC50 (518A2 melanoma cells): 10 ± 1 nM
IC50 [5]: 20 ± 2 nM
IC50 [6]: 40 ± 2 nM
IC50 [7]: 30 ± 3 nM
SI (IC50 HDFa cells/IC50 tumor cell average) ([8]; selectivity index, HDFa vs tumor cell average): 786
IC50 (U-87 glioblastoma cells): 70 ± 9 nM
IC50 [9]: 200 ± 20 nM
